Among the data in article PMC7155212 (Journal of Enzyme Inhibition and Medicinal Chemistry, 2020) are IC50 values, retold here.

Where “and” joins values, the source holds several entries; their conditions need not be identical. Equal values may be shown once. Read-outs that look alike come from different tables or passages of the source.

The nature of test [1]: In vitro antioxidant activity (DPPH radical scavenging). As to conditions: DPPH free radical scavenging, 30 min at 37 °C, mean ± SD (n = 3). Here is the method: The assay provides an assessment of the antioxidant activity due to free radical scavenging by measuring hydrogen atom (or one electron) donating activity. DPPH is a purple stable free radical that is reduced to a yellow-coloured diphenylpicryl hydrazine by an antioxidant. The spectrophotometric assay was carried out as described by the literature method with a slight modification. 100 μL of a sample solution was added to 100 μL of DPPH solution. Following 30 min of incubation at 37 °C and protection from light, the absorbance at 517 nm was determined using a microplate reader. Each group was measured three times in parallel to average. IC50 values were calculated. The percentage of DPPH radical scavenging rate of the target compound is calculated as follows: DPPH free radical scavenging effect (%)=[A0 – (A1−A2)]/A0×100% where A0 is the absorbance of blank group; A1 is the absorbance of sample group; A2 is the absorbance of sample blank group.

Another test has as its target T1, MAO-B (Rattus norvegicus, UniProt P19643).
T1 construct: The crude enzyme was extracted from the liver of 200–250 g of Wistar rats; from tissue; host or cells: liver of Wistar rats (crude enzyme)
T1 sequence (P19643 1-520): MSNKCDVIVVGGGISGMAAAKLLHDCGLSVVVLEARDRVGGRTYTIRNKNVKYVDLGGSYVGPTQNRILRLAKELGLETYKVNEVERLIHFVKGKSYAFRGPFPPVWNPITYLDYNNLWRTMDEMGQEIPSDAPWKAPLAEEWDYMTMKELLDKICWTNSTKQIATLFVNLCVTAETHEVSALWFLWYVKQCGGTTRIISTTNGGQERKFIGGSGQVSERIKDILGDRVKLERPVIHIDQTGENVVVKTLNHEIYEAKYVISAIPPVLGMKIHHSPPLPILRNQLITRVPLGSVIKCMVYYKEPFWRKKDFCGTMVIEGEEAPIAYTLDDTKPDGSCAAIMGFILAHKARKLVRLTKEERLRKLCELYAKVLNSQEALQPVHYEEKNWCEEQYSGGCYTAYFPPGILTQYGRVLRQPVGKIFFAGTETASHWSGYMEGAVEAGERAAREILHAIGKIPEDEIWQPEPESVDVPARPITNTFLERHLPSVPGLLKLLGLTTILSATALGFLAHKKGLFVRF
As to the kind of experiment: In vitro MAO inhibitory activity (Holt method, crude enzyme from rat liver). Format: biochemical, Wistar rat. Here is the method: The MAO inhibitory activity of the 3-arylbenzofuranone compounds was determined by the method of Holt et al.[17] with slight modifications. The crude enzyme was extracted from the liver of 200–250 g of Wistar rats according to literature methods[18]^,[19]. The crude enzyme protein content was determined by the Bradford method using a Bradford Protein Assay Kit (Beyotime). The assay was performed in 0.2 M potassium phosphate buffer pH 7.6 on 96-well plates in 240 μl total volume. The chromogenic solution containing 1 mM vanillic acid, 0.5 mM 4-aminoantipyrine, and 4 U/ml horseradish peroxidase in 0.2 M potassium phosphate buffer pH 7.6 was mixed anew for each measurement. 40 μL of enzyme solution and 40 μL of sample solution were added to a 96-well plate. The solution was then incubated at 37 °C for 20 min. 120 μL of the 4-(trifluoromethyl) benzylamine solution and 40 μL of the chromogenic solution were added subsequently and incubated at 37 °C for 90 min. The absorbance was measured at 490 nm using a microplate reader, and the inhibition rate of MAO and the IC50 value of each sample were calculated according to the formula. The control group replaced the sample solution with PBS (0.2 M, pH = 7.6), the positive control replaced the sample with the positive drug, and the blank group replaced the substrate with PBS, and each group was measured three times in parallel to average. Monoamine oxidase inhibitory effect (%) = [(AC – AB) – (AS – ASB )]/(AC – AB)×100% where AC is the absorbance of control group; AB is the absorbance of blank group; AS is the absorbance of sample group; ASB is the absorbance of sample blank group.

Another test concerns the target BChE from equine serum (Equus caballus, UniProt P81908). As to the kind of experiment: biochemical. Format: biochemical. Here is the method: (§1) The anticholinesterase activity of the 3-arylbenzofuranone compounds was determined by the method of Ellman et al.[16] with slight modifications. […] Acetylthiocholine iodide and butyrylthiocholine iodide were used as substrates respectively. 5,5′-Dithiobis(2-nitrobenzoic acid) (DTNB) was used as the chromophoric reagent. To a 96-well plate, 120 µL of phosphate buffer solution (0.1 M, pH = 8.0, PBS), 20 µL of DTNB (3.3 mM in 0.1 M PBS, pH = 8.0) were added sequentially, 20 µL AChE solution (0.2 U/mL in 0.1 M PBS, pH = 8.0), 20 µL of different concentrations of the sample solution, shaken well, and incubated at 37 °C for 5 min. Then, 20 µL of substrate (5 mM in 0.1 M PBS, pH = 8.0) were added, shaken well, and incubated at 37 °C for 20 min. […] BChE inhibitory activity was assessed similarly using butyrylthiocholine iodide as the substrate. The sample solution was set to five concentration gradients and the experiment was repeated three times. […] Cholinesterase inhibitory effect (%)=[A0−(A1−A2)]/A0×100% where A0 is the absorbance of blank group; A1 is the absorbance of sample group; A2 is the absorbance of sample blank group.

In the next test the target is AChE from electric eel (Electrophorus electricus, UniProt O42275). The test can be described thus: biochemical. The class given is biochemical. As to conditions: Ellman method, mean ± SD (n = 3). Here is the method: as §1
Setting [2] is: rat liver crude enzyme, 4-(trifluoromethyl)benzylamine substrate, mean ± SD (n = 3), read-out: IC50 value MAO-B inhibitory activity.
Setting [3] is: equine serum BChE, Ellman method, mean ± SD (n = 3), read-out: IC50 value BuChE inhibitory activity.
Setting [4] is: read-out: IC50 value AChE inhibitory activity.
The mark [5] stands for this setting: IC50 value AChE inhibitory activity.

BChE from equine serum, sequence (P81908 whole entry): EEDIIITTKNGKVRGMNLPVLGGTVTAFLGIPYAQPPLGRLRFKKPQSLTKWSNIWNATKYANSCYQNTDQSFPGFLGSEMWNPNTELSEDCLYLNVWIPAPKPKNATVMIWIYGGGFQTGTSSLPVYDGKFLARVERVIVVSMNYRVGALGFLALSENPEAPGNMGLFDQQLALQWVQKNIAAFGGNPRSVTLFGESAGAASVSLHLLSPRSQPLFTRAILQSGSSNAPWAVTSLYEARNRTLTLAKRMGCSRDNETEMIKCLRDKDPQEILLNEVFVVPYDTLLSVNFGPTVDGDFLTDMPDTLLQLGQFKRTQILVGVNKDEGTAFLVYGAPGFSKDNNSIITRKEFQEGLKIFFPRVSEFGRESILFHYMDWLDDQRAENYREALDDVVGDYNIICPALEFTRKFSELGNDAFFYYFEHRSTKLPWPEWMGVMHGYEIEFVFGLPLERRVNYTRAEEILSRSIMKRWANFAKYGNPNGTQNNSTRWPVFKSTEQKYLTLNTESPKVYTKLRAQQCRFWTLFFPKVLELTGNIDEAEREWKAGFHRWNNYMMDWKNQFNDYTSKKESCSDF
AChE from electric eel, sequence (O42275 24-633): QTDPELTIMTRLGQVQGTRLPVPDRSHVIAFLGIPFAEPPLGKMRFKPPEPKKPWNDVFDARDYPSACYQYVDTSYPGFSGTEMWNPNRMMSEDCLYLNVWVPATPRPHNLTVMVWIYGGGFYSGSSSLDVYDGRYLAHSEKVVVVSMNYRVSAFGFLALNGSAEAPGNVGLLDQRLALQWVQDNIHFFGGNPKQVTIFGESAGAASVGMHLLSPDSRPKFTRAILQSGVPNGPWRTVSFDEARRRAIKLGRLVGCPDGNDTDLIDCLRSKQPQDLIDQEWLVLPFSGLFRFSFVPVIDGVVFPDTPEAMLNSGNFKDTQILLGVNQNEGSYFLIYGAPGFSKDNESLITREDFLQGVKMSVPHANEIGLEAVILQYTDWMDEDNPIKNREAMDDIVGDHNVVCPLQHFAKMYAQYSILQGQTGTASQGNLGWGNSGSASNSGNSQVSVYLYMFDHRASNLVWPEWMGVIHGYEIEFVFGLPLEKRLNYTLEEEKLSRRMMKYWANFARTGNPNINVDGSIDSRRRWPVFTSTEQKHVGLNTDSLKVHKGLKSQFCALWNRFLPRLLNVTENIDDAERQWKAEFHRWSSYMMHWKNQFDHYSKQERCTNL

In test [1], `O=C1O[C@H]([C@@H](O)CO)C(O)=C1O` [Ascorbic acid, reference compound] gave an IC50 of 7.69 ± 0.1 µM.
Consider `COc1ccc(C2C(=O)Oc3cc(O)ccc32)cc1` (stereo not drawn) [Compound 1, 6-Hydroxyl-3–(4′-methoxyphenyl)-benzofuranone], for which the IC50 on MAO-B (setting [2]) is 61.3 ± 0.79 µM; in test [1] it was 13.3 ± 0.27 µM; on BChE from equine serum (setting [3]) it was above 200 µM; on AChE from electric eel (setting [4]) it was 50.6 ± 3.12 µM.
Take `COc1ccc(C2C(=O)Oc3ccc(O)cc32)cc1` (stereo not drawn) [Compound 2, 5-Hydroxyl-3–(4′-methoxyphenyl)-benzofuranone]: the IC50 was 14.7 ± 0.78 µM on MAO-B (setting [2]), above 100 µM in test [1] and 4.15 ± 1.02 µM at AChE from electric eel (setting [4]).
`COc1ccc(C2C(=O)Oc3cc(OC)ccc32)cc1` (stereo not drawn) [Compound 3, 6-Methoxy-3–(4′-methoxyphenyl)-benzofuranone]: the IC50 at MAO-B (setting [2]) was 298 ± 5.4 µM; in test [1], 11.8 ± 0.18 µM; at BChE from equine serum (setting [3]), above 200 µM; on AChE from electric eel (setting [4]), 80.5 ± 3.41 µM.
For `COc1ccc(C2C(=O)Oc3ccc(OC)cc32)cc1` (stereo not drawn) [Compound 4, 5-Methoxy-3–(4′-methoxyphenyl)-benzofuranone], the IC50 on MAO-B (setting [2]) was 383 ± 5.08 µM; in test [1] it was 33.1 ± 1.45 µM; on BChE from equine serum (setting [3]), above 200 µM; at AChE from electric eel (setting [4]), < 1 µM and 0.74 µM.
For `COc1ccc(C2C(=O)Oc3c2ccc(O)c3O)cc1` (stereo not drawn) [Compound 5, 6,7-Dihydroxy-3–(4′-methoxyphenyl)-benzofuranone], the IC50 on MAO-B (setting [2]) is 22.48 ± 0.22 µM; in test [1], 5.51 ± 0.2 µM; at BChE from equine serum (setting [3]) it was above 200 µM.
For `COc1ccc(C2C(=O)Oc3cc(O)ccc32)cc1OC` (stereo not drawn) [Compound 6, 6-Hydroxy-3–(3′,4′-dimethoxyphenyl)-benzofuranone], the IC50 on MAO-B (setting [2]) was 48.6 ± 2.02 µM; on BChE from equine serum (setting [3]), above 200 µM; at AChE from electric eel (setting [4]), 24.4 ± 1.21 µM.
In the case of `COc1ccc(C2C(=O)Oc3cc(OC)c(O)cc32)cc1` (stereo not drawn) [Compound 7, 5-Hydroxy-6-methoxy-3–(4′-methoxyphenyl)-benzofuranone], the IC50 at MAO-B (setting [2]) was 91.13 ± 0.7 µM; in test [1] it was 2.62 ± 0.21 µM; at BChE from equine serum (setting [3]) it was 32.9 ± 0.76 µM; on AChE from electric eel (setting [4]), < 1 µM and 0.52 µM.
On to `COc1ccc(C2C(=O)Oc3c2ccc(OC)c3O)cc1` (stereo not drawn) [Compound 8, 6-Methoxy-7-hydroxy-3–(4′-methoxyphenyl)-benzofuranone], for which the IC50 on MAO-B (setting [2]) was 40.6 ± 1.92 µM; in test [1], 5.96 ± 0.14 µM; at BChE from equine serum (setting [3]), above 200 µM; on AChE from electric eel (setting [4]), 9.24 ± 0.62 µM.
For `COc1ccc2c(c1)OC(=O)C2c1ccc(OC)c(OC)c1` (stereo not drawn) [Compound 9, 6-Methoxy-3–(3′,4′-dimethoxyphenyl)-benzofuranone], the IC50 against MAO-B is 354 ± 5.05 µM; in test [1], 17.2 ± 0.58 µM; on BChE from equine serum it was above 200 µM; against AChE from electric eel (setting [5]), 0.35 ± 0.03 µM.
Turning to `COc1ccc(C2C(=O)Oc3cc(OC)c(OC)cc32)cc1` (stereo not drawn) [Compound 10, 5,6-Dimethoxy-3–(4′-methoxyphenyl)-benzofuranone], the IC50 is 493 ± 7.1 µM at MAO-B (setting [2]), 13.89 ± 0.11 µM in test [1], above 200 µM on BChE from equine serum (setting [3]) and 28.7 ± 1.44 µM at AChE from electric eel (setting [4]).
Regarding `COc1cc(C2C(=O)Oc3cc(O)ccc32)cc(OC)c1OC` (stereo not drawn) [Compound 11, 6-Hydroxy-3–(3′,4′,5′-trimethoxyphenyl)-benzofuranone], the IC50 was 38.6 ± 0.42 µM on MAO-B (setting [2]), 11.2 ± 0.24 µM in test [1], above 200 µM on BChE from equine serum (setting [3]) and 48.24 ± 0.34 µM at AChE from electric eel (setting [4]).
Taken in the same sequence, the figures for `COc1ccc(C2C(=O)Oc3c2ccc(OC)c3O)cc1OC` (stereo not drawn) [Compound 12, 6-Methoxy-7-hydroxy-3–(3′,4′-dimethoxyphenyl)-benzofuranone] were 22.9 ± 0.73 µM, 1.6 ± 0.1 µM, 180.9 ± 1.48 µM and 5.25 ± 0.44 µM.
On the same counts, the results for `COc1cc(C2C(=O)Oc3ccc(O)cc32)cc(OC)c1OC` (stereo not drawn) [Compound 14, 5-Hydroxy-3–(3′,4′,5′-trimethoxyphenyl)-benzofuranone] are 69.7 ± 1.26 µM, 5.11 ± 0.13 µM, 128 ± 4.65 µM and 3.37 ± 0.17 µM.
On the same counts, the results for `COc1ccc2c(c1)C(c1cc(OC)c(OC)c(OC)c1)C(=O)O2` (stereo not drawn) [Compound 15, 5-Methoxy-3–(3′,4′,5′-trimethoxyphenyl)-benzofuranone] are 215 ± 2.27 µM, 32.6 ± 0.42 µM, above 200 µM and 2.54 ± 0.19 µM.
In the case of `COc1ccc2c(c1)OC(=O)C2c1cc(OC)c(OC)c(OC)c1` (stereo not drawn) [Compound 16, 6-Methoxy-3–(3′,4′,5′-trimethoxyphenyl)-benzofuranone], the IC50 at MAO-B (setting [2]) was above 500 µM; in test [1], 18 ± 0.48 µM; on BChE from equine serum (setting [3]), above 200 µM; at AChE from electric eel (setting [4]), 4.07 ± 0.19 µM.
Turning to `COc1ccc2c(c1)C(c1ccc(OC)c(OC)c1OC)C(=O)O2` (stereo not drawn) [Compound 17, 5-Methoxy-3–(2′,3′,4′-trimethoxyphenyl)-benzofuranone], the IC50 at MAO-B (setting [2]) is 82.7 ± 1.31 µM; in test [1], 29.2 ± 0.31 µM; on BChE from equine serum (setting [3]), above 200 µM; at AChE from electric eel (setting [4]), 42.3 ± 4.01 µM.
On the same counts, the results for `COc1ccc2c(c1)OC(=O)C2c1ccc(OC)c(OC)c1OC` (stereo not drawn) [Compound 18, 6-Methoxy-3–(2′,3′,4′-trimethoxyphenyl)-benzofuranone] are 180.3 ± 1.32 µM, 64.5 ± 1.29 µM, above 200 µM and 124 ± 2.17 µM.
On to `COc1ccc(C2C(=O)Oc3cc(OC)c(OC)cc32)cc1OC` (stereo not drawn) [Compound 19, 5,6-Dimethoxy-3–(3′,4′-dimethoxyphenyl)-benzofuranone], for which the IC50 against MAO-B is 146 ± 1.83 µM; in test [1], 12.6 ± 0.14 µM; against BChE from equine serum it was above 200 µM; at AChE from electric eel (setting [5]), 36.5 ± 0.51 µM.
In the case of `COc1cc(C2C(=O)Oc3c2ccc(O)c3O)cc(OC)c1OC` (stereo not drawn) [Compound 20, 6,7-Dihydroxy−3–(3′,4′,5′-trimethoxyphenyl)-benzofuranone], the IC50 is 149 ± 3.39 µM on MAO-B (setting [2]), 42.6 ± 2.58 µM in test [1], above 200 µM on BChE from equine serum (setting [3]) and 0.089 ± 0.01 µM on AChE from electric eel (setting [4]).
For `COc1cc2c(cc1O)C(c1cc(OC)c(OC)c(OC)c1)C(=O)O2` (stereo not drawn) [Compound 21, 5-Hydroxy-6-methoxy-3–(3′,4′,5′-trimethoxyphenyl)-benzofuranone], the IC50 at MAO-B (setting [2]) is above 500 µM; in test [1] it was 5.35 ± 0.33 µM; at BChE from equine serum (setting [3]) it was 146 ± 3.05 µM; at AChE from electric eel (setting [4]), 2.38 ± 0.2 µM.

The IC50 is the concentration needed to halve the response being measured.
